Structures can show the parent of a compound that is named as a salt.

Data on two molecules can be found in US20060110456A1, “Method for biocidal and/or biostatic treatment and compositions therefor” (NATIONAL UNIVERSITY OF SINGAPORE, priority 2004, published 2006).

This assay concerns bacterial biofilms (strains 9, 14, 20, 27 and 28). Kind of assay: Effect of ZPX and ZFN on adhesion and removal of biofilms. In kind it is cell-based, marine bacteria isolated from Singapore fouling communities. The settings on record: NTC; for Effect on established bacterial biofilms: 25 ug ml^−1; for Biofilm present after treatment (added with bacteria or after biofilm established): 50 ug ml^−1. How it is done: The bacteria were grown, washed and their concentrations were adjusted as described above. The bacterial suspension (75 μl) of strains 9, 14, 20, 27 and 28 in SSW and 50 μl of SDI water were placed into 96 well polystyrene microplates (Falcon 351172). Blank wells were filled with 75 μl of SSW and 50 μl of SDI. Three wells were used for blanks, each control and treatment.
The cells were allowed to attach to the wells for 2 h. Afterwards, unattached bacteria and liquid in the wells were removed by aspiration and wells were washed with 200 μl of SSW twice using a microplate washer as described above. After washing, 75 μl of SSW were added and 50 μl of SDI to the control (bacterial suspension and SDI as above) and blank (75 μl of SSW and 50 μl of SDI) wells.
After 2 h, the wells were washed with SSW, washed twice with SDI and stained with crystal violet as described above. After 10 min, the stain was removed, wells were washed twice with SDI, and crystal violet was released from the attached bacteria by adding 200 μl of sodium desoxycholate. After 10 min, absorbance (A590) of each well was read using a plate reader (Tecan Sunrise, Switzerland). Comparisons were made between wells where attached bacteria were exposed to SDI and wells where they were exposed to the pharmaceuticals.

For the molecule `Cc1cc2c(s1)Nc1ccccc1N=C2N1CCN(C)CC1` [ZPX, olanzapine], the “Effect on established bacterial biofilms” value was “no significant effect” and the “Biofilm present after treatment (added with bacteria or after biofilm established)” value was “Except for strain 28, little or no biofilm was present after treatment”.
Take `Cc1nccn1CC1CCc2c(c3ccccc3n2C)C1=O` (stereo not shown) [ZFN, ondansetron hydrochloride]: the “Effect on established bacterial biofilms” value is given as “no significant effect” and the “Biofilm present after treatment (added with bacteria or after biofilm established)” value is reported as “Except for strain 28, little or no biofilm was present after treatment”.
